pIC50: −log10 of the molar value.
Each compound was assayed against T1, GRK6, recombinant full-length GST-tagged human protein (Homo sapiens, UniProt P43250) (assay: GRK6 assay, IC50 determination (8-point concentration-response)). Details: Series 1 (Table 11); 20 nM GRK6, ATP 12 μM (Km), Peptide 216 1 μM, incubation 7 h.
T1 construct: Enzyme: 20 nM GRK6, recombinant full-length GST-tagged human protein; GST
Type: biochemical
Experimental: The following assay conditions were used.
Buffer: 50 mM TRIS-HCl, pH 7.5, 5 mM MgCl2, 2 mM DTT, 0.01% Triton X-100, 10 μM Na3VO4, 10 μM b-GP, 1% DMSO
Enzyme: 20 nM GRK6, recombinant full-length GST-tagged human protein
Peptide substrate (Peptide 216): 1 μM
One hundred two compounds (1-1-1-102) were further characterized by determining IC50 values in a GRK6 assay. This screen has been previously described in WO 2013/063458, which is incorporated by reference in its entirety herein. Briefly, the following activities were performed: 8-point concentration-response determinations in singlicate wells (top concentration=60 μM, 3-fold dilution steps); Repeat tests for QC failed or inconclusive compounds; and Repeat tests (titrate down) for compounds with >50% inhibition at all tested concentrations.
Twelve compounds (2-1-2-12) were further characterized by determining the IC50 values in a GRK6 assay. This screen has been previously described in WO 2013/063458, which is incorporated by reference in its entirety herein. Specific activities were performed as described above (Example 18).
Thirty-six compounds (3-1-3-36) were further characterized by determining the IC50 values in a GRK6 assay. This screen has been previously described in WO 2013/063458, which is incorporated by reference in its entirety herein. Specific activities were performed as described above (Example 18).
Fifty-four compounds (4-1-4-54) were further characterized by determining the IC50 values in a GRK6 assay. This screen has been previously described in WO 2013/063458, which is incorporated by reference in its entirety herein. Specific activities were performed as described above (Example 18).

T1 sequence (P43250 whole entry): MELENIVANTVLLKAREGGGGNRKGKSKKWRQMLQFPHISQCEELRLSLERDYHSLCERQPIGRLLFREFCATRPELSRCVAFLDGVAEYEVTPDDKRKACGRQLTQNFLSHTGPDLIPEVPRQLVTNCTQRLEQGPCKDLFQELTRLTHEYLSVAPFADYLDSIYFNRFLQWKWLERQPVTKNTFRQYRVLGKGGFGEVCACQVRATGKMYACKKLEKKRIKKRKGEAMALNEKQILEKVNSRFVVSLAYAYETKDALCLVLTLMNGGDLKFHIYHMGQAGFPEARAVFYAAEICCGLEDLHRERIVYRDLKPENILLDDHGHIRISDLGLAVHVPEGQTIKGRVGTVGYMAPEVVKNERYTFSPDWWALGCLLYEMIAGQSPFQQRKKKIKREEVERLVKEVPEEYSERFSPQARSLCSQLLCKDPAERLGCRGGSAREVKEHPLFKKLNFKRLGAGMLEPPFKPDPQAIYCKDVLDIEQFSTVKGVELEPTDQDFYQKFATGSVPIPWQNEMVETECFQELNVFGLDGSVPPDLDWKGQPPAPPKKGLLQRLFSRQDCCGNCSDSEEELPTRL

Row | SMILES | pIC50
1 | O=C(O)CSc1nnc(-c2ccc(-c3ccc4[nH]cc(-c5ccccc5)c4c3)o2)[nH]1 [Compound 1-1] | 7.10
2 | O=C(O)CSc1nnc(-c2ccc(-c3cccc(OCc4cccc([N+](=O)[O-])c4)c3)o2)[nH]1 [Compound 1-2] | 6.90
3 | O=C(O)CSc1nnc(-c2ccc(-c3ccc4[nH]c5ccccc5c4c3)o2)[nH]1 [Compound 1-3] | 6.88
4 | O=C(O)CSc1nnc(-c2ccc(-c3ccc4[nH]c(-c5ccccc5)cc4c3)o2)[nH]1 [Compound 1-4] | 6.88
5 | O=C(O)CSc1nnc(-c2ccc(-c3cccc4[nH]c(-c5ccccc5)cc34)o2)[nH]1 [Compound 1-5] | 6.86
6 | N#Cc1cccc(COc2cccc(-c3ccc(-c4nnc(SCC(=O)O)[nH]4)o3)c2)c1 [Compound 1-6] | 6.79
7 | N#Cc1ccc(COc2cccc(-c3ccc(-c4nnc(SCC(=O)O)[nH]4)o3)c2)cc1 [Compound 1-7] | 6.78
8 | COc1cc(Cl)cc(-c2ccc(-c3nnc(SCC(=O)O)[nH]3)o2)c1 [Compound 1-8] | 6.77
9 | O=C(O)CSc1nnc(-c2ccc(-c3ccc(Cl)c(Cl)c3)o2)[nH]1 [Compound 1-9] | 6.76
10 | O=C(O)CSc1nnc(-c2ccc(-c3cc(Cl)cc(Cl)c3)o2)[nH]1 [Compound 1-10] | 6.73
11 | COc1ccc2cc(C#Cc3ccc(-c4nnc(SCC(=O)O)[nH]4)o3)ccc2c1 [Compound 1-11] | 6.73
12 | Cn1c2ccccc2c2ccc(-c3ccc(-c4nnc(SCC(=O)O)[nH]4)o3)cc21 [Compound 1-12] | 6.72
13 | O=C(O)CSc1nnc(-c2ccc(-c3cccc(OCc4cccc(OC(F)F)c4)c3)o2)[nH]1 [Compound 1-13] | 6.71
14 | Cn1ccc2ccc(-c3ccc(-c4nnc(SCC(=O)O)[nH]4)o3)cc21 [Compound 1-14] | 6.67
15 | O=C(O)CSc1nnc(-c2ccc(-c3cnc4ccccc4c3)o2)[nH]1 [Compound 1-15] | 6.63
16 | COc1ccc2cc(-c3ccc(-c4nnc(SCC(=O)O)[nH]4)o3)ccc2c1 [Compound 1-16] | 6.62
17 | COc1ccc(-c2ccc(-c3nnc(SCC(=O)O)[nH]3)o2)cc1C=O [Compound 1-17] | 6.61
18 | N#Cc1ccc2[nH]c(-c3ccc(-c4nnc(SCC(=O)O)[nH]4)o3)cc2c1 [Compound 1-18] | 6.60
19 | O=C(O)CSc1nnc(-c2ccc(C#Cc3ccc4ccccc4c3)o2)[nH]1 [Compound 1-19, 2-((5-(5-(naphthalen-2-ylethynyl)furan-2-yl)-4H-1,2,4-triazol-3-yl)thio)acetic acid] | 6.59
20 | O=C(O)CSc1nnc(-c2ccc(-c3cc(Cl)cc(OCc4ccccc4)c3)o2)[nH]1 [Compound 1-20] | 6.59
21 | O=C(O)CSc1nnc(-c2ccc(-c3cccc(OC(F)(F)F)c3)o2)[nH]1 [Compound 1-21] | 6.58
22 | O=C(O)CSc1nnc(-c2ccc(-c3ccc4cc(-c5ccccc5)[nH]c4c3)o2)[nH]1 [Compound 1-22] | 6.57
23 | O=C(O)CSc1nnc(-c2ccc(-c3cccc(OCc4ccccc4)c3)o2)[nH]1 [Compound 1-23] | 6.56

Row | SMILES | pIC50
24 | O=C(O)CSc1nnc(-c2ccc(-c3cccc(OCc4cccc(Cl)c4)c3)o2)[nH]1 [Compound 1-24] | 6.56
25 | O=C(O)CSc1nnc(-c2ccc(-c3ccc(Oc4ccccc4)cc3)o2)[nH]1 [Compound 1-25] | 6.55
26 | O=C(O)CSc1nnc(-c2ccc(-c3ccc4sccc4c3)o2)[nH]1 [Compound 1-26] | 6.55
27 | CCCOc1ccc(-c2ccc(-c3nnc(SCC(=O)O)[nH]3)o2)cc1Cl [Compound 1-27] | 6.51
28 | O=C(O)CSc1nnc(-c2ccc(-c3cc(Cl)ccc3F)o2)[nH]1 [Compound 1-28] | 6.51
29 | O=C(O)CSc1nnc(-c2ccc(-c3ccc(F)c(Cl)c3)o2)[nH]1 [Compound 1-29] | 6.50
30 | O=C(O)CSc1nnc(-c2ccc(-c3ccc4ncccc4c3)o2)[nH]1 [Compound 1-30, 2-((3-(5-(quinolin-6-yl)furan-2-yl)-1H-1,2,4-triazol-5-yl)thio)acetic acid] | 6.50
31 | COc1ccc2cc(-c3oc(-c4nnc(SCC(=O)O)[nH]4)cc3C#CCO)ccc2c1 [Compound 1-31] | 6.49
32 | O=C(O)CSc1nnc(-c2ccc(-c3cc4ccccc4o3)o2)[nH]1 [Compound 1-32] | 6.49
33 | N#Cc1c[nH]c2cc(-c3ccc(-c4nnc(SCC(=O)O)[nH]4)o3)ccc12 [Compound 1-33] | 6.48
34 | CCCOc1cccc(-c2ccc(-c3nnc(SCC(=O)O)[nH]3)o2)c1 [Compound 1-34] | 6.47
35 | O=C(O)CSc1nnc(-c2ccc(-c3ccc4[nH]ccc4c3)o2)[nH]1 [Compound 1-35] | 6.46
36 | O=C(O)CSc1nnc(-c2ccc(-c3cccc(Cl)c3)o2)[nH]1 [Compound 1-36] | 6.44
37 | Cc1ccc(-c2ccc(-c3nnc(SCC(=O)O)[nH]3)o2)cc1Cl [Compound 1-37] | 6.44
38 | CCOc1ccc2ccc(-c3ccc(-c4nnc(SCC(=O)O)[nH]4)o3)cc2c1 [Compound 1-38] | 6.44
39 | O=C(O)CSc1nnc(-c2ccc(-c3cc(O)cc(F)c3)o2)[nH]1 [Compound 1-39] | 6.44
40 | O=C(O)CSc1nnc(-c2ccc(-c3cccc(OCc4ccc(Cl)c(Cl)c4)c3)o2)[nH]1 [Compound 1-40] | 6.44
41 | Cc1cc(-c2ccc(-c3nnc(SCC(=O)O)[nH]3)o2)ccc1Cl [Compound 1-42] | 6.41
42 | COc1cc(-c2ccc(-c3nnc(SCC(=O)O)[nH]3)o2)ccc1OCc1ccccc1 [Compound 1-43] | 6.40
43 | COc1cccc(-c2ccc(-c3nnc(SCC(=O)O)[nH]3)o2)c1 [Compound 1-44] | 6.40
44 | NS(=O)(=O)c1cccc(-c2ccc(-c3nnc(SCC(=O)O)[nH]3)o2)c1 [Compound 1-45] | 6.38
45 | O=C(O)CSc1nnc(-c2ccc(-c3ccc4cc[nH]c4c3)o2)[nH]1 [Compound 1-46] | 6.38
46 | O=C(O)CSc1nnc(-c2ccc(-c3ccc4occc4c3)o2)[nH]1 [Compound 1-47] | 6.37

Row | SMILES | pIC50
47 | O=C(O)CSc1nnc(-c2ccc(-c3cccc(OCc4ccc5ccccc5c4)c3)o2)[nH]1 [Compound 1-48] | 6.34
48 | COc1ccc2cc(-c3oc(-c4nnc(SCC(=O)O)[nH]4)cc3Br)ccc2c1 [Compound 1-49] | 6.34
49 | O=C(O)CSc1nnc(-c2ccc(-c3ccc(Cl)cc3)o2)[nH]1 [Compound 1-50] | 6.33
50 | CCOc1ccc(-c2ccc(-c3nnc(SCC(=O)O)[nH]3)o2)cc1Cl [Compound 1-51] | 6.30
51 | O=C(O)CSc1nnc(-c2ccc(-c3cccc(OCc4cccc(C(F)(F)F)c4)c3)o2)[nH]1 [Compound 1-52] | 6.30
52 | COc1ccc(/C=C/c2ccc(-c3nnc(SCC(=O)O)[nH]3)o2)cc1 [Compound 1-53] | 6.29
53 | COc1ccc(-c2ccc(-c3nnc(SCC(=O)O)[nH]3)o2)cc1OCc1ccccc1 [Compound 1-54] | 6.29
54 | O=C(O)CSc1nnc(-c2ccc(-c3c[nH]c4ccccc34)o2)[nH]1 [Compound 1-55] | 6.25
55 | O=C(O)CSc1nnc(-c2ccc(-c3cccc(C(F)(F)F)c3)o2)[nH]1 [Compound 1-56] | 6.23
56 | O=C(O)CSc1nnc(-c2ccc(-c3cc4cc(F)ccc4[nH]3)o2)[nH]1 [Compound 1-57] | 6.22
57 | O=C(O)CSc1nnc(-c2ccc(-c3cccc(OCc4ccc(Cl)c(C(F)(F)F)c4)c3)o2)[nH]1 [Compound 1-58] | 6.21
58 | O=C(O)CSc1nnc(-c2ccc(-c3cccc([N+](=O)[O-])c3)o2)[nH]1 [Compound 1-59] | 6.21
59 | O=C(O)CSc1nnc(-c2ccc(-c3cccc(OCc4ccc(C(F)(F)F)cc4)c3)o2)[nH]1 [Compound 1-60] | 6.20
60 | Cn1ccc2cc(-c3ccc(-c4nnc(SCC(=O)O)[nH]4)o3)ccc21 [Compound 1-61] | 6.20
61 | O=C(O)CSc1nnc(-c2ccc(-c3cccc(O)c3)o2)[nH]1 [Compound 1-62] | 6.20
62 | Cn1ncc2ccc(-c3ccc(-c4nnc(SCC(=O)O)[nH]4)o3)cc21 [Compound 1-63, 2-((5-(5-(1-methyl-1H-indazol-6-yl)furan-2-yl)-4H-1,2,4-triazol-3-yl)thio)acetic acid] | 6.16
63 | CCOc1cccc(-c2ccc(-c3nnc(SCC(=O)O)[nH]3)o2)c1 [Compound 1-64] | 6.15
64 | Cc1ccc(-c2ccc(-c3nnc(SCC(=O)O)[nH]3)o2)cc1[N+](=O)[O-] [Compound 1-65] | 6.15
65 | COc1ccc(-c2ccc(-c3nnc(SCC(=O)O)[nH]3)o2)cc1/C=N/OCc1ccccc1 [Compound 1-66] | 6.13
66 | CC(C)Oc1cccc(-c2ccc(-c3nnc(SCC(=O)O)[nH]3)o2)c1 [Compound 1-67] | 6.13
67 | O=C(O)CSc1nnc(-c2ccc(-c3ccc(Br)cc3)o2)[nH]1 [Compound 1-68] | 6.09
68 | Cc1cc2cc(-c3ccc(-c4nnc(SCC(=O)O)[nH]4)o3)ccc2n1C [Compound 1-69] | 6.08
69 | O=C(O)CSc1nnc(-c2ccc(-c3cccc4[nH]ccc34)o2)[nH]1 [Compound 1-70] | 6.07

From patent US9902739B2, “Small molecule inhibitors of G protein coupled receptor 6 kinases polypeptides” (Mayo Foundation for Medical Education and Research, priority 2014, dated 2018)
